Reference: patent US20040191168A1, “Tumor cell killing by cell cycle checkpoint abrogation combined with Inhibition of the classical mitogen activated protein (map) kinase pathway” (priority 2000, published 2004)

How the values were obtained:
p42/44 MAPK = experiment: Phospho-MAPK immunoblot in U937 cells; format: cell-based, human; conditions: UCN-01 150 nM, MEK inhibitor coincubated with UCN-01, 2 h to 18 h
Experimental: Immunoblot and Immunoprecipitation Analysis. Whole-cell pellets were lysed by sonication in 1× sample buffer [62.5 mM Tris base (pH6.8), 2% SDS, 50 mM DTT, 10% glycerol, 0.1% bromphenol blue, and […] each chymostatin, leupeptin, aprotinin, pepstatin, and soybean trypsin inhibitor] and boiled for 5 min. For analysis of phospho-proteins, 1 mM each Na vanadate and Na PPi was added to the sample buffer. Protein samples were collected from the supernatant after centrifugation of the samples at 12,800 3 g for 5 min, and protein was quantified using Coomassie Protein Assay Reagent (Pierce, Rock-ford, Ill.). Equal amounts of protein ([…]) were separated by SDS-PAGE and electrotransferred onto a nitrocellulose membrane. For blotting phospho-proteins, no SDS was included in the transfer buffer. The blots were blocked with 5% milk in PBS-Tween 20 (0.1%) at room temperature for 1 h and probed with the appropriate dilution of primary antibody overnight at 4° C. The blots were washed twice in PBS-Tween 20 for 15 min and then incubated with a 1:2000 dilution of horseradish peroxidase-conjugated secondary antibody (Kirkegaard & Perry, Gaithersburg, Md.) in 5% milk/PBS-Tween 20 at room temperature for 1 h. […] Protein samples were centrifuged at 12,800×g for 30 min and quantified. […]

MAPK/ERK = experiment: p42 MAPK immune complex kinase assay in carcinoma cells; format: cell-based, human; conditions: MCF7, MDA-MB-231, T47D and DU145 cells; UCN-01 150 nM; MEK1/2 inhibitors (PD98059 25 μM, PD184352 10 μM, U0126 5 μM) given with UCN-01
Experimental: Immunoprecipitations from Lysates. Fifty microliters of Protein A agarose (Ag) slurry (25 μl bead volume) was washed twice with 1 ml PBS containing 0.1% (v/v) Tween 20, and resuspended in 0.1 ml of the same buffer. Antibodies (2 μg, 20 μl), serum (20 μl) were added to each tube and incubated (3 h, 4° C.). For pre-conjugated antibodies,10 μl of slurry (4 μg antibody) was used. Clarified equal aliquots of lysates (0.25 ml, 100 μg total protein) were mixed with Ag-conjugated antibodies in duplicate using gentle agitation (2.5 h, 4° C.). Ag-antibody-antigen complexes were recovered by centrifugation, the supernatant discarded, and washed (10 min) sequentially with 0.5 ml buffer A (twice), PBS and buffer B [25 mM Hepes, pH 7.4, 0.1 mM Na3VO4].
Assay of p42^MAPK activity. Immunoprecipitates were incubated (final volume 50 μl ) with 50 μl of buffer B containing 0.2 mM [γ-^32P]ATP (5000 cpm/pmol), 1 μM Microcystin-LR, 0.5 mg/ml myelin basic protein NP), which initiated reactions at time=0. After 20 min., 40 μl of the reaction mixtures were spotted onto a 2 cm circle of P81 paper (Whatman, Maidstone, England) and immediately placed into 180 mM phosphoric acid. Papers were washed four times (10 min each) with phosphoric acid, and once with acetone, and ^32P-incorporation into MBP was quantified by liquid scintillation spectroscopy.

SMILES | phosphorylation (activation) of MAPK (p42/44 MAPK) | MAPK/ERK activity (immune complex kinase assay) (MAPK/ERK)
O=C(NOCC1CC1)c1ccc(F)c(F)c1Nc1ccc(I)cc1Cl [PD184352] | essentially complete | opposed
CN[C@@H]1C[C@H]2O[C@@](C)([C@@H]1OC)n1c3ccccc3c3c4c(c5c6ccccc6n2c5c31)C(=O)N[C@H]4O [UCN-01, 7-hydroxystaurosporine] | induced phosphorylation (activation) of MAPK | activation of MAPK/ERK was observed
